{
  "source": "patent US20060270638A1",
  "about": "(Wyeth, priority 2005, published 2006)",
  "key": {"[1]": {"experiment": "Safety in healthy subjects of the drug interaction study", "type": "in vivo, human (healthy subjects)", "conditions": "single 25-mg oral warfarin alone, multiple 50-mg IV tigecycline, and combined"}, "[2]": {"conditions": "for plasma concentrations following tigecycline coadministration: versus warfarin 25 mg alone, FIG. 1, FIG. 2; for increase of exposure (AUC): warfarin given with a therapeutic regimen of tigecycline"}, "[3]": {"experiment": "Tigecycline steady-state serum pharmacokinetics, alone and with warfarin", "type": "in vivo, human (healthy subjects)", "procedure": "Blood tubes for tigecycline analysis are placed immediately on ice until a clot forms.\nThus, the peak concentration (Cmax) and the time to peak concentration (tmax) are taken directly from the observed data. […] Systemic clearance (Cl) is calculated as dose/AUC, and it is presented both corrected and uncorrected for body weight."}, "[4]": {"test_system": "international normalized ratio (INR)", "conditions": "in vivo; cited from earlier work"}, "[5]": {"conditions": "single 25-mg oral dose of warfarin, Mean ± SD"}, "[6]": {"conditions": "combination versus warfarin alone"}},
  "note": "Entries after “also recorded” stand apart in the source; their conditions may differ.",
  "data": [
    {"smiles": "CC(=O)CC(c1ccccc1)c1c(O)c2ccccc2oc1=O", "note": "(racemic) [Warfarin, 3-(α-acetonylbenzyl)-4-hydroxycoumarin]", "values": [
      {"measurement": "INR AUC0-[…]", "setting": "prothrombin time (INR); [5]", "result": "216 ± 14", "unit": "h"},
      {"measurement": "INRmax", "setting": "prothrombin time (INR); [5]", "result": "1.8 ± 0.3"},
      {"measurement": "tmax (time to maximum INR value)", "setting": "prothrombin time (INR); [5]", "result": "1800 ± 540", "unit": "min"},
      {"measurement": "safety-related concerns", "setting": "[1]", "result": "No safety-related concerns"},
      {"measurement": "R-warfarin AUC", "setting": "[2]; human, in vivo, po", "result": "73000 ± 18000", "unit": "ng·h/mL"},
      {"measurement": "R-warfarin Cl/F", "setting": "[2]; human, in vivo, po", "result": "0.0717 ± 0.013", "unit": "mL/min/kg"},
      {"measurement": "S-warfarin AUC", "setting": "[2]; human, in vivo, po", "result": "47000 ± 18000", "unit": "ng·h/mL"},
      {"measurement": "S-warfarin Cl/F", "setting": "[2]; human, in vivo, po", "result": "0.117 ± 0.0317", "unit": "mL/min/kg"}
    ]},
    {"smiles": "CC(=O)C[C@H](c1ccccc1)c1c(O)c2ccccc2oc1=O", "note": "[R-warfarin]", "values": [
      {"measurement": "plasma concentrations following tigecycline coadministration", "setting": "[2]", "result": "higher"},
      {"measurement": "increase of exposure (AUC)", "setting": "[2]", "result": 68, "unit": "%"}
    ]},
    {"smiles": "CC(=O)C[C@@H](c1ccccc1)c1c(O)c2ccccc2oc1=O", "note": "[S-warfarin]", "values": [
      {"measurement": "plasma concentrations following tigecycline coadministration", "setting": "[2]", "result": "higher"},
      {"measurement": "increase of exposure (AUC)", "setting": "[2]", "result": 29, "unit": "%"}
    ]},
    {"smiles": "CN(C)c1cc(NC(=O)CNC(C)(C)C)c(O)c2c1C[C@H]1C[C@H]3[C@H](N(C)C)C(O)=C(C(N)=O)C(=O)[C@@]3(O)C(O)=C1C2=O", "note": "[Tigecycline, (4S,4aS,5aR,12aS)-9-[2-(tert-butylamino)acetamido]-4,7-bis(dimethylamino)-1,4,4a,5,5a,6,11,12a-octahydro-3,10,12,12a-tetrahydroxy-1,11-dioxo-2-naphthacenecarboxamide]", "values": [
      {"measurement": "mean steady-state systemic clearance and exposure (Cmax, C12h, AUC) versus monotherapy mean values", "setting": "[3]; following coadministration of warfarin", "result": "≤ 10", "unit": "%"},
      {"measurement": "Tmax", "setting": "[3]; human, intravenous, 50 mg, tigecycline in serum, steady state, Mean ± SD", "result": 30, "unit": "min"},
      {"measurement": "AUC(0-t)", "setting": "[3]; human, intravenous, 50 mg, tigecycline in serum, steady state, Mean ± SD, read-out: AUC0-12 h", "result": "2100 ± 514", "unit": "ng·h/mL"},
      {"measurement": "concentration at 12 h", "setting": "[3]; human, intravenous, 50 mg, tigecycline in serum, steady state, Mean ± SD, read-out: C12 h", "result": "109 ± 28", "unit": "ng/mL"},
      {"measurement": "Cmax", "setting": "[3]; human, tigecycline in serum, steady state, 50 mg IV every 12 h, Mean ± SD", "result": "886 ± 202", "unit": "ng/mL"},
      {"measurement": "systemic clearance", "setting": "[3]; tigecycline intravenous clearance, steady state, Mean ± SD", "result": "5.17 ± 1.2", "unit": "mL/min/kg"},
      {"measurement": "mean INR AUC0-[…] following the combination treatment", "setting": "prothrombin time (INR); [6]", "result": "unchanged"},
      {"measurement": "mean INRmax lower following the combination treatment", "setting": "prothrombin time (INR); [6]", "result": 10, "unit": "%"},
      {"measurement": "effect on warfarin's anticoagulant profile (measured by INR)", "setting": "prothrombin time (INR); therapeutic regimen of tigecycline with warfarin", "result": "does not significantly alter; also recorded: did not significantly alter"},
      {"measurement": "safety-related concerns", "setting": "[1]", "result": "No safety-related concerns"},
      {"measurement": "effect on oral-dose clearance of R-warfarin and S-warfarin", "setting": "[2]; coadministration of the therapeutic regimen of tigecycline", "result": "significantly decreased"}
    ]},
    {"smiles": "CN(C)c1ccc(O)c2c1C[C@H]1C[C@H]3[C@H](N(C)C)C(O)=C(C(N)=O)C(=O)[C@@]3(O)C(O)=C1C2=O", "note": "[minocycline]", "values": [
      {"measurement": "compatibility with warfarin", "setting": "[4]", "result": "demonstrated incompatibility"}
    ]}
  ]
}
